Measured values reported in patent US11786485B2, “Methods and compositions for treating advanced stage non-small cell lung cancer” (Golden Biotechnology Corporation, priority 2016, dated 2023).

Experiments:
[1] = test system: different cancer cell lines; assay: Cancer cell death, IC50; type: cell-based
Text: Compound 1 inhibited isoprenyltransferase activity and molecular docking analysis predicted that the isoprene unit and the 4′-hydroxy group of Compound 1 may play important roles in the interaction between Compound 1 and isoprenyltransferase. In addition, Compound 1 increased the expression level of beclin-1 (three-fold), LC3-II/I (P<0.01) and […] formation in lung cancer cells. Compound 1 may therefore inhibit Ras activation through inhibition of isoprenyltransferase, leading to autophagic cell death.

[2] = Safety pharmacology: central nervous system effect; type: in vivo; settings: Sprague-Dawley rat
hERG ion channel = hERG ion channel (Homo sapiens, UniProt Q12809); assay: Safety pharmacology: binding activity with hERG ion channel in vitro
Chain of hERG ion channel (Q12809 whole entry): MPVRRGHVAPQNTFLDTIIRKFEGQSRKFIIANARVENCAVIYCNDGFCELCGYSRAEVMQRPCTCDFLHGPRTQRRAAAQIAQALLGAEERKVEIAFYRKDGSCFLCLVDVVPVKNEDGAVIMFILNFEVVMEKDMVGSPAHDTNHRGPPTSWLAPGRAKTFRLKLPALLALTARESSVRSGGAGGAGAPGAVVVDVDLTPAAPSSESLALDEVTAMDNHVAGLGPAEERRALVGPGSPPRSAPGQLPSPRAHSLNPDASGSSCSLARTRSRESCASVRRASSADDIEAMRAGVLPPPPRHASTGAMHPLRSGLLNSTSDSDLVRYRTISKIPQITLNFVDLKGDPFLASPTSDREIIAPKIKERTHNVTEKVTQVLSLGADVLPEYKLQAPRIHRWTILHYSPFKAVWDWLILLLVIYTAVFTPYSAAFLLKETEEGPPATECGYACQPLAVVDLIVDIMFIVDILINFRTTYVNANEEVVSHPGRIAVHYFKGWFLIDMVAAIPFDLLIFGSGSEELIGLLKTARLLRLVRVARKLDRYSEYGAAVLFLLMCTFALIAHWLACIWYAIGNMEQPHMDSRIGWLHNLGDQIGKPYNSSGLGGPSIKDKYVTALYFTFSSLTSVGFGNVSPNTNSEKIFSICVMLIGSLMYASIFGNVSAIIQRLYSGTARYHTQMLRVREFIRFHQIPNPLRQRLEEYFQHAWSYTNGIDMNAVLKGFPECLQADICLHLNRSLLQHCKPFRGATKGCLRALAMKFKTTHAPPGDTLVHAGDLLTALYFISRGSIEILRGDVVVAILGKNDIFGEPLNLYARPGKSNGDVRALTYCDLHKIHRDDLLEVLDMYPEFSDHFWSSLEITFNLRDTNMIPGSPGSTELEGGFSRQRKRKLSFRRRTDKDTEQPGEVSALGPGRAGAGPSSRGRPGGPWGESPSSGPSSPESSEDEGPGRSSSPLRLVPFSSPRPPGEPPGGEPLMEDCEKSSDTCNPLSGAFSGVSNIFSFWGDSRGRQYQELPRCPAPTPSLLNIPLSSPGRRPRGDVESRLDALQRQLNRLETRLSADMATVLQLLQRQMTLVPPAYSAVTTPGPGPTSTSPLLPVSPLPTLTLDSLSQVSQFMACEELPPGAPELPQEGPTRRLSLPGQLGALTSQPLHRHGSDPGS

[3] = Safety pharmacology: cardiovascular effect; type: in vivo; settings: beagle dogs
[4] = Safety pharmacology: respiratory system effect; type: in vivo; settings: Sprague-Dawley rat
[5] = Preclinical pharmacokinetic studies; type: in vivo; settings: preclinical PK studies
[6] = Tissue distribution in rat; type: in vivo; settings: previous study
[7] = 7-day toxicity study in rats; settings: Sprague-Dawley, rat, in vivo, 7-day study, read-out: maximum tolerated dose (MTD)
[8] = 7-day toxicity study in dogs; settings: beagle, dog, in vivo, 7-day study, read-out: maximum tolerated dose (MTD)
[9] = 28-day toxicity study in rats; type: in vivo; settings: rat
Procedure: . Two 28-days toxicity studies were conducted to determine no observed adverse effect level (NOAEL) for Sprague-Dawley rats and beagle dogs. […]

[10] = 28-day toxicity study in dogs; type: in vivo; settings: 28-day study, dog
Procedure: […]. Two 28-days toxicity studies were conducted to determine no observed adverse effect level (NOAEL) for Sprague-Dawley rats and beagle dogs. […].

[11] = Toxicokinetic evaluations in rats and dogs; type: in vivo; settings: for dose proportionality of exposure: rat and dog
Procedure: Toxicokinetic evaluations were performed on a 7-day dog study (100, 250, 500 mg/kg/day single dose, 500 mg/kg/day 3 days dose) and the two 28-day studies mentioned above (Rat: 10, 30, 100 mg/kg/day single and 28 days dose; Dog: 10, 30, 100 mg/kg/day single and 28 days dose).

[12] = Genotoxicity tests (Ames, mammalian cell gene mutation, micronucleus, erythrocyte micronucleus)
[13] = Reproductive toxicity in vivo study; settings: up to 80 mg/kg/day, Sprague-Dawley rats
[14] = Phase 1 clinical study: safety/tolerability; type: in vivo
Procedure: (§1) A first-in-human phase 1 study was performed to determine the MTD and to evaluate PK, safety/tolerability and efficacy profiles of exemplary Compound 1 in NSCLC patients who are refractory to conventional treatment modalities. This open-label, non-randomized, dose-escalation study, which completed in February 2013, enrolled a total of 13 patients; seven males and six females, all of whom were Asian. A total of five patients were enrolled an accelerated titration phase (one patient each in the 50, 100, 200, 300, and 450 mg dose groups) and eight patients were enrolled in a standard titration phase (three patients in the 450 mg dose group and five patients in the 600 mg dose group).

[15] = Phase 1 clinical study: pharmacokinetics; type: in vivo
Procedure: as §1
Compound 1 will be administered as a single agent in this study at a dose of 600 mg per day (200 mg t.i.d. administered at 8-hour intervals). This dose regimen was chosen based on results from the Phase 1 clinical study involving NSCLC patients refractory to conventional treatment modalities, which reported good tolerability of Compound 1 up to 600 mg/day.

NSCLC = assay: Phase 1 clinical study: efficacy (tumor overall response); type: in vivo, human; settings: end of treatment
Procedure: as §1
The PPS was defined in the Phase 1 study as all patients who completed at least three cycles of treatment with proper imaging assessment (RECIST v.1.1).

[16] = test system: stage IV (including pleural effusion) non-squamous NSCLC; assay: Phase II study in stage IV non-squamous NSCLC patients; type: in vivo, human
Text: This is a single-arm, open-label, Phase II study in KRAS-positive and KRAS-negative patients with stage IV (including pleural effusion) non-squamous NSCLC who have failed two lines of anti-cancer therapy. This is defined as patients with radiologically confirmed disease progression following greater than or equal to two, but less than or equal to four, prior lines of systemic anti-cancer therapy. A maximum of 60 evaluable patients with NSCLC will receive Compound 1, of which 30 patients will be KRAS-positive and 30 patients KRAS-negative. An evaluable patient will have received at least one dose of Compound 1 and have a valid baseline tumor assessment. Enrollment will continue until the target number of evaluable patients has been enrolled.
Written informed consent must be obtained from all patients before initiating Screening. The Screening period will be up to 42 days in duration (Days −42 to −1). Following completion of all Screening assessments and confirmation of eligibility criteria, patients will receive Compound 1 200 mg three-times-a-day (t.i.d. at 8-hour intervals) on Day 0 for 12 weeks (one treatment cycle) or until documented evidence of disease progression, unacceptable toxicity, non-compliance or withdrawal of consent by the patient, or the investigator decides to discontinue treatment, whichever comes first. Study drug should be taken at 8-hour intervals. The time of study drug administration should be recorded in the patient diary.
The primary efficacy endpoint is progression-free survival (PFS) rate at 12 weeks, which is defined as the proportion of patients alive and progression-free at Week 12. Patients will be progression-free if they have no evidence of progressive disease (defined according to RECIST guidelines, version 1.1) from the start of treatment to Week 12.
The primary endpoint is the PFS rate at 12 weeks, defined as the proportion of patients alive and progression-free at Week 12. […]
Tumor response will be assessed at 6-week intervals during the first treatment cycle using the RECIST criteria version 1.1. […]

[17] = test system: epidermal growth factor receptor (EGFR); settings: human, in vivo; cited from earlier work

COC1=C(OC)C(O)C(C/C=C(\C)CC/C=C(\C)CCC=C(C)C)C(C)C1=O (stereo not shown) [Compound 1, 4-hydroxy-2,3-dimethoxy-6-methyl-5-(3,7,11-trimethyldodeca-2,6,10-trienyl)cyclohex-2-enone]
IC50 [1]: 2.22 to 6.42 µM
central nervous system effect [2]: no particular safety concerns
binding activity with hERG ion channel (hERG ion channel): no particular safety concerns
cardiovascular effect [3]: no particular safety concerns
respiratory system effect [4]: no particular safety concerns
absorption [5]: fast absorption
metabolism profile [5]: CYP involved metabolism
organ distribution [5]: substantial organ distribution especially in the lung, heart, and kidney
tissue with the highest accumulation [6]: lung tissue
MTD at 7 days [7]: 100 mg/kg/day
MTD at 7 days [8]: 100 mg/kg/day
toxicity of the high dose ([9]; 28-day study, 100 mg/kg/day): not severely toxic
NOAEL at 28 days ([9]; Sprague-Dawley, in vivo): 30 mg/kg/day
highest non-severely toxic dose (HNSTD) [10]: 30 mg/kg/day
Tmax ([11]; Sprague-Dawley (rat), beagle (dog), rat, dog, in vivo, rats and dogs, 7-day and 28-day studies, read-out: peak time (Tmax)): 0.25 to 6 h
dose proportionality of exposure ([11]; after 1 day of treatment): trend of dose proportionality
dose proportionality of exposure ([11]; after 28 days of treatment): inconsistent phenomena
genotoxicity [12]: No genotoxicity
reproductive toxicity [13]: no reproductive toxicity
patients with Grade 3 TEAEs ([14]; 200 mg vertigo, 450 mg decreased appetite and encephalitis, unrelated to study drug): two
laboratory abnormality recorded as a TEAE ([14]; 450 mg dose group, considered unrelated to study drug): one case of hematuria of Grade 1
patients with treatment-related TEAEs ([14]; 13 patients treated): 100%
Dose Limiting Toxicities (DLTs) ([14]; 50, 100, 200, 300, 450, 600 mg, Intent-to-Treat Population): No Dose Limiting Toxicities
toxicity profile ([14]; 50-600 mg dose levels): low toxicity profile
safety and tolerability ([14]; 50-600 mg dose levels, daily for 4 weeks): generally safe and well tolerated
clinically significant changes in vital sign, ECG and physical examination parameters ([14]; Follow-Up Visit): None of the patients
diarrhea, patients ([14]; Grade 1): 69.2%
gastrointestinal disorders, patients ([14]; Grade 1): 53.8%
nausea, patients ([14]; Grade 1): 46.2%
vomiting, patients ([14]; Grade 1): 46.2%
diarrhea, patients ([14]; Grade 2): 7.7%
gastrointestinal disorders, patients ([14]; Grade 2): 38.5%
nausea, patients ([14]; Grade 2): 7.7%
vomiting, patients ([14]; Grade 2): 23.1%
Grade 4 treatment-emergent adverse events (TEAEs) ([14]; NCI-CTCAE Version 4.03): No Grade 4
diarrhea, patients ([14]; all grades): 76.9%
gastrointestinal disorders, patients ([14]; all grades): 92.3%
nausea, patients ([14]; all grades): 53.8%
vomiting, patients ([14]; all grades): 69.2%
ECOG score ([14]; all patients at all time points except two patients in the 450 mg group (scores 4 and 2)): 1
patients reporting serious adverse events (SAEs) ([14]; two each at 450 and 600 mg, none related to study drug): four
differences in AUC0-24 within the 100-300 mg dose range ([15]; Day 1 and Day 28): no significant differences
proportionality of AUC0-24 to dose ([15]; Day 1 and Day 28): not linearly proportional
dose with the highest peak concentration (Cmax) over the 100-300 mg dose range ([15]; Day 28): 200 mg
extent of absorption versus dose ([15]; human, in vivo): dose proportional
rate and extent of absorption versus dose ([15]; human, in vivo): increased in a dose proportional manner
rate of absorption versus dose ([15]; human, in vivo): non-dose proportional
proportion of Per-Protocol patients with stable disease (NSCLC): 100%
subjects alive or progression free at 12 week ([16]; 200 mg t.i.d., overall population): 4 subjects out of 20
tumor progression free rate or proportion of patients alive at 12 weeks ([16]; KRAS mutant patients, 200 mg t.i.d.): 3/14
efficacy for target and non-target lesions at lung related sites ([16]; preliminary phase 2 result): 5/11

C#Cc1cccc(Nc2ncnc3cc(OCCOC)c(OCCOC)cc23)c1 [erlotinib]
response rate [17]: 60%
